Results reported in patent US4151041A, “Process for production of maltopentaose and maltohexaose” (Meiji Seika Kaisha, Ltd., priority 1976, dated 1979).

Experiments:
Klebsiella pneumoniae = experiment: paper disc-plate method, combination with SF-1130-x1 substance; type: cell-based; settings: in combination with SF-1130-x1, Klebsiella pneumoniae
test microorganism = experiment: paper disc-plate method, test microorganisms in general; type: cell-based; settings: for effect on antibacterial activity of the SF-1130-x2 substance: 1.25 mg/cc in upper plate layer, with SF-1130-x2; for antibacterial activity in themselves: alone, under the Table 4 testing conditions; for effect on antibacterial activity of the SF-1130-x1 substance: in combination with SF-1130-x1; for effect on antibacterial activity of the SF-1130-x substance: with SF-1130-x substance
Experimental: The test was conducted by a conventional paper disc-plate method. Thus, the SF-1130-x2 substance was dissolved in distilled water at a concentration of 1 mg/cc or 2 mg/cc, and with the test solutions so prepared were impregnated paper discs made of filter paper 8 mm in diameter which were subsequently air-dried. These paper discs were placed on an upper plate layer of the known mycin-assay incubation medium comprising 0.5% peptone, 0.3% meat extract and 1.5% agar (pH 6) which contained the test microorganism to be incubated therein and which was laid over the lower layer of agar medium in the assaying dish. The incubation was made at a temperature of 37° C. overnight, and subsequently the diameters of the inhibition zones formed around the paper discs were measured. These tests were repeated in the same manner as above but with the additional incorporation of 1.25 mg/cc of maltopentaose or maltohexaose into the upper plate layer of the micin-assay incubation medium. […] Control testing was also conducted in which the antibacterial potency of the SF-1130-x2 substance alone was estimated in the absence of maltopentaose or maltohexaose.

[1] = in vitro antimicrobial / antibacterial activity (general statement); type: cell-based; settings: for in vitro antimicrobial activity: in themselves
[2] = test system: mice infected with ascites tumor of "Sarcoma 180"; experiment: cellular immunity test according to the delayed skin reaction technique; type: in vivo, ICR-JCL mice (male); settings: for adjuvant effect on immuno-potentiating activity of SF-1130-x substance: with SF-1130-x substance
Experimental: The test was carried out by the following procedure: A group of ICR-JCL mice (male) having an average body weight of 31.58±4g (8 weeks old) (six mice per group) were inoculated with ascites tumor of "Sarcoma 180". 24 hours after the inoculation of the tumor cells, each of the drug samples to be tested was subcutaneously administered once into the mice. Two days after the inoculation an ethanolic solution of 5% picryl chloride was applied to the hair-shaved abdomens of mice to establish the sensitization. Subsequently, each drug sample under test was subcutaneously administered once a day for four successive days. Nine days after the inoculation, a solution of 1% picryl chloride in olive oil was applied to the two sides of both ears of mice to establish the secondary sensitization. 24 hours after the secondary sensitization, the degree (%) of increase in thickness of the ears was evaluated for the test mice. The extent of the delayed skin reaction can be assessed from the percentage increase.

[3] = test system: Staphylococcus aureus Smith S-424; experiment: host-defense stimulation in JCL-ICR mice against bacterial infection (survival, LD50 of bacteria); type: in vivo; settings: living animals
Experimental: The test was conducted as follows: The crude, yellowish brown powder obtained in Example 1 was reprecipitated from water-ethanol and the reprecipitate was dissolved in a phosphate-buffered saline at ph 7.2. The resultant solution containing a mixture of maltopentaose and maltohexaose was intraperitoneally administered into a group of JCL-ICR mice (male) having an average body weight of 20g (4 weeks old) (eight mice per group) at a dosage of 100 mg/kg body or 20 mg/kg body. The administration was effected three times at an interval of 48 hours.
72 hours after the final administration, the mice were intraperitoneally inoculated with 0.5 ml/mouse of a cell dispersion of Staphylococcus aureus Smith S-424 strain which had been prepared by dilution of the incubated culture with physiological saline solution followed by addition of 5% mucin. The number of the mice that survived was counted during five days after the inoculation and the LD50 value of the bacterial cells (the number of the bacterial cells necessary to kill 50% of mice) calculated in each case. Control testing was also conducted where the treatment with the mixture of maltopentaose and maltohexaose was omitted.

solubility = type: physicochemical

Row | Structure (SMILES) | effect on antibacterial activity of the SF-1130-x1 substance (Klebsiella pneumoniae) | effect on antibacterial activity of the SF-1130-x2 substance (test microorganism) | antibacterial activity in themselves (test microorganism) | effect on antibacterial activity of the SF-1130-x1 substance (test microorganism) | effect on antibacterial activity of the SF-1130-x substance (test microorganism) | in vitro antibacterial activity [1] | in vitro antimicrobial activity [1] | Degree of increase in thickness (ears) ([2]; 200 mg/kg body, subcutaneous) | Percentage increase ([2]; 200 mg/kg body, subcutaneous, Control = 100.0) [%] | adjuvant effect on immuno-potentiating activity of SF-1130-x substance [2] | effect on host-defense system against bacterial infection [3] | solubility in acetone (solubility) | solubility in ethanol (solubility) | solubility in water (solubility)
1 | OC[C@H]1O[C@H](O[C@H]2[C@H](O)[C@@H](O)[C@@H](O[C@H]3[C@H](O)[C@@H](O)[C@@H](O[C@H]4[C@H](O)[C@@H](O)[C@@H](O[C@H]5[C@H](O)[C@@H](O)[C@@H](O[C@H]6[C@H](O)[C@@H](O)C(O)O[C@@H]6CO)O[C@@H]5CO)O[C@@H]4CO)O[C@@H]3CO)O[C@@H]2CO)[C@H](O)[C@@H](O)[C@@H]1O (some centres unmarked) [maltohexaose] | improvement in the antibacterial activity is not observed | improves the antibacterial activity | no antibacterial activity | generally improves the antibacterial activity | improving the antibacterial activity | no in vitro antibacterial activity | no in vitro antimicrobial activity | 4.7 ± 0.988 ×10^ -3 cm | 87.0 | adjuvant effect of increasing the immuno-potentiating activity | may stimulate the host-defense system | insoluble | insoluble | readily soluble
2 | OC[C@H]1O[C@H](O[C@H]2[C@H](O)[C@@H](O)[C@@H](O[C@H]3[C@H](O)[C@@H](O)[C@@H](O[C@H]4[C@H](O)[C@@H](O)[C@@H](O[C@H]5[C@H](O)[C@@H](O)C(O)O[C@@H]5CO)O[C@@H]4CO)O[C@@H]3CO)O[C@@H]2CO)[C@H](O)[C@@H](O)[C@@H]1O (some centres unmarked) [maltopentaose] | improvement in the antibacterial activity is not observed | improves the antibacterial activity | no antibacterial activity | generally improves the antibacterial activity | improving the antibacterial activity | no in vitro antibacterial activity | no in vitro antimicrobial activity | – | – | adjuvant effect of increasing the immuno-potentiating activity | may stimulate the host-defense system | insoluble | insoluble | readily soluble
